Data taken from the Kinase Knowledgebase extract (Sharma et al. 2016).

Columns and labels:
EGFR [1] = molecular target: EGFR (UniProt P00533)
EGFR [2] = molecular target: EGFR (UniProt P00533); remark: listed apart in the source

Sequence of EGFR (P00533 whole entry, looked up): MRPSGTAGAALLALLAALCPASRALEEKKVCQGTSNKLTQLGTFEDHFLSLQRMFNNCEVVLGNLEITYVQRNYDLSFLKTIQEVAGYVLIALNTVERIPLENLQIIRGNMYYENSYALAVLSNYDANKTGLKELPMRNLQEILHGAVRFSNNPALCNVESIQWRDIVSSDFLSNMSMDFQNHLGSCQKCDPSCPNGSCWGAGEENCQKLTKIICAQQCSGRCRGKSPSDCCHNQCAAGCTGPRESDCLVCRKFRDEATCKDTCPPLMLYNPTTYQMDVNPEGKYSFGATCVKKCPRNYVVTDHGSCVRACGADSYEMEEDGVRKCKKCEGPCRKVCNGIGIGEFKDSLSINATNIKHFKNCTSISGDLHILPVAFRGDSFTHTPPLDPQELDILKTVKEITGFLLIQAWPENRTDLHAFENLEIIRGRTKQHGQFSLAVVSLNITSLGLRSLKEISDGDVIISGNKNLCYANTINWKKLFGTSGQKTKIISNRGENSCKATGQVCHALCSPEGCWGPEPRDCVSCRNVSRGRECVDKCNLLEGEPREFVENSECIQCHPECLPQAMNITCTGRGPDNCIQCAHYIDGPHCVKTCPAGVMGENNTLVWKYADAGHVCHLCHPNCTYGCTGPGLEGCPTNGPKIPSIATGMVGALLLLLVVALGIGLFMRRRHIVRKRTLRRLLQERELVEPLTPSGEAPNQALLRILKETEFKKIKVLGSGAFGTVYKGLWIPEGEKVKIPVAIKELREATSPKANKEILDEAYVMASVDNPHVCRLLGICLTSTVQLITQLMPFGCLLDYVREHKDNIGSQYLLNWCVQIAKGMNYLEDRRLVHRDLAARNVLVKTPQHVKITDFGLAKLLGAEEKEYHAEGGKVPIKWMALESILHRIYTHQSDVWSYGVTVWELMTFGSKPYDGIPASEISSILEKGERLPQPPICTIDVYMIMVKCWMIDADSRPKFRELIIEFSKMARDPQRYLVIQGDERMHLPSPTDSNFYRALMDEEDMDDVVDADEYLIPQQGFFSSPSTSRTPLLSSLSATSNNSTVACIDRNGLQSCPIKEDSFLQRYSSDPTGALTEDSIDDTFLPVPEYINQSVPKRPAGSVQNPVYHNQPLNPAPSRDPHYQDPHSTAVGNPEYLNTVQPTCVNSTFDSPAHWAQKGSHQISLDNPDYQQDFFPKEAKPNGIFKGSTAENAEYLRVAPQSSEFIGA

| SMILES | IC50 (EGFR [1]) [µM] | Ki (EGFR [1]) [µM] | IC50 (EGFR [2]) [µM] |
| --- | --- | --- | --- |
| O=C(O)/C=C/c1cc(O)ccc1O | 4.4 |  |  |
| N#CC(C#N)=Cc1cc(O)cc(O)c1 |  | 10 | 160 |
| N#CC(C#N)=Cc1cc(O)c(O)c(O)c1 |  | 1 | 15 |
| N#CC(C#N)=C(O)c1cc(O)c(O)c(O)c1 |  |  | 35 |
| N#C/C(=C\c1ccc(O)c(O)c1)C(=O)O |  |  | 400 |
| N#CC(C#N)=C(N)/C(C#N)=C/c1ccc(O)c(O)c1 |  |  | 1.8 |
| N#C/C(=C\c1ccc([N+](=O)[O-])cc1)C(=O)O |  | 1300 |  |
| N#C/C(=C\c1ccc(O)c(O)c1)C(N)=O |  |  | 4 |
| COc1cc(C=C(C#N)C#N)cc(O)c1O |  |  | 20 |
